Where “and” joins values, the source holds several entries; their conditions need not be identical. Equal entries are not always repeated.
How the values were obtained:
Type in all cases: cell-based
GPR139 [1] = molecular target: T1, GPR139 (Homo sapiens, UniProt Q6DWJ6); test: Ca2+ mobilization assay, agonist mode, stable GPR139-CHOk1 cell line; details: for EC50 / Emax: Supplementary Table 2, mean ± SEM; for EC50: read-out: pEC50 Ca2+ (converted); for Emax: normalized to Lundbeck Cmp 1a, read-out: Emax (%) Ca2+
T1 sequence (Q6DWJ6 1-353): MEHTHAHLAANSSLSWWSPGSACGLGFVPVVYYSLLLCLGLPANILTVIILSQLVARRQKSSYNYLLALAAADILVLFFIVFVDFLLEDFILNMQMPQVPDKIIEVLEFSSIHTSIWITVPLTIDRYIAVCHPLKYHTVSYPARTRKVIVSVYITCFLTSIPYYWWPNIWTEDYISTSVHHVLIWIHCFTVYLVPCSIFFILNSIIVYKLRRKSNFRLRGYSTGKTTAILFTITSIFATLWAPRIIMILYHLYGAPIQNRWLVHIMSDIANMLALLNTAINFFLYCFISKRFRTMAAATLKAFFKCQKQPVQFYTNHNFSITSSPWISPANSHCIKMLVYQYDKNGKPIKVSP
How it was run: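 Agonist activity of compounds is assessed in stably transfected CHO-K1 cells using the calcium dye Fluo-4 at 37 °C in HEPES-buffered HBSS (pH 7.4). Efficacy is expressed relative to the reference agonist Lundbeck Cmp 1a, set as 100%.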

GPR139 [2] = molecular target: T1, GPR139; test: Ca2+ mobilization assay, antagonist mode (EC80 800 nM Lundbeck Cmp 1a after 20 min preincubation), GPR139-CHOk1
How it was run: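 Antagonist mode: 800 nM (EC80) reference agonist Lundbeck Cmp 1a added following 20 min pre-incubation with 10 µM compound. GPR139-CHOk1 cells, Fluo-4 dye, probenecid-containing HEPES buffer pH 7.4; intracellular Ca2+ measured at 37 °C (ex 485, em 525 nm).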

[3] = molecular target: T2, human muscarinic acetylcholine M1 receptor (M1R) (Homo sapiens, UniProt P11229); test: Ca2+ mobilization counter-screen in M1R-CHOk1 cells;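 further: 10 µM test compound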
T2 sequence (P11229 1-460): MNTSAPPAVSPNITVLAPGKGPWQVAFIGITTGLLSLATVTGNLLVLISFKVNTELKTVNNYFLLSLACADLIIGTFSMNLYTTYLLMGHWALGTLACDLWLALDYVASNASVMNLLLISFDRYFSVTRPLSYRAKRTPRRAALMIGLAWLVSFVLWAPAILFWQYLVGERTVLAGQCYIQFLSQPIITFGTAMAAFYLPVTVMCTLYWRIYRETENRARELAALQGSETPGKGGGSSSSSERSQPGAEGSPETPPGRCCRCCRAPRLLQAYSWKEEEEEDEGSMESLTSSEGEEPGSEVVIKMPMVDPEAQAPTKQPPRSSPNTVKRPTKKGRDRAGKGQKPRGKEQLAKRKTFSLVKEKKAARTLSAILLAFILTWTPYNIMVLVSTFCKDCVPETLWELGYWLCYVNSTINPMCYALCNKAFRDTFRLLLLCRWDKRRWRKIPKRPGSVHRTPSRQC
How it was run: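 Fluorescence (ex 485 nm, em 525 nm) recorded at 37 °C after automated compound addition to CHO-K1 cells stably expressing M1R. Cells were dye-loaded with 2 µM Fluo-4 AM for 1 h at 37 °C, with 2.5 mM probenecid present; final DMSO at most 0.3%.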

[4] = Agonist mode, individual replicates (Supplementary Figure 4)
[5] = log [Compound] M = -4.5, individual replicate columns
[6] = log [Compound] M = -5.0, individual replicate columns
[7] = log [Compound] M = -5.5, individual replicate columns
[8] = log [Compound] M = -6.0, individual replicate columns
[9] = log [Compound] M = -6.5, individual replicate columns
[10] = log [Compound] M = -7.0, individual replicate columns
[11] = log [Compound] M = -7.5, individual replicate columns
[12] = log [Compound] M = -8.0, individual replicate columns
[13] = log [Compound] M = -8.5, individual replicate columns
[14] = log [Compound] M = -9.0, individual replicate columns
[15] = individual replicates (Supplementary Figure 4)
[16] = individual replicates (Supplementary Figure 5)

| EC50 (GPR139 [1]) | Emax (GPR139 [1]) | Compound | Ca2+ signal (% of Cmp 1a) (GPR139 [1]; [4]) | Ca2+ signal (% of Cmp 1a) (GPR139 [1]; [5]) | Ca2+ signal (% of Cmp 1a) (GPR139 [1]; [6]) | Ca2+ signal (% of Cmp 1a) (GPR139 [1]; [7]) | Ca2+ signal (% of Cmp 1a) (GPR139 [1]; [8]) | Ca2+ signal (% of Cmp 1a) (GPR139 [1]; [9]) | Ca2+ signal (% of Cmp 1a) (GPR139 [1]; [10]) | Ca2+ signal (% of Cmp 1a) (GPR139 [1]; [11]) | Ca2+ signal (% of Cmp 1a) (GPR139 [1]; [12]) | Ca2+ signal (% of Cmp 1a) (GPR139 [1]; [13]) | Ca2+ signal (% of Cmp 1a) (GPR139 [1]; [14]) | Ca2+ signal (% of Cmp 1a) (GPR139 [2]; [15]) | Ca2+ signal (% of Carbachol) [3, 16] | further results |
| --- | --- | --- | --- | --- | --- | --- | --- | --- | --- | --- | --- | --- | --- | --- | --- | --- |
| 1000 nM | 109 ± 10% | Cc1cc(-c2nc(CC(=O)NC(C)c3ccccc3)no2)ccn1 (stereo not shown) [Compound 1.19, CC(C1=CC=CC=C1)NC(CC2=NOC(C3=CC(C)=NC=C3)=N2)=O] | 76 % of Cmp 1a and 74 % of Cmp 1a and 71 % of Cmp 1a | 117 % of Cmp 1a and 90 % of Cmp 1a and 116 % of Cmp 1a | 97 % of Cmp 1a and 89 % of Cmp 1a and 99 % of Cmp 1a | 77 % of Cmp 1a and 75 % of Cmp 1a and 88 % of Cmp 1a | 61 % of Cmp 1a and 62 % of Cmp 1a and 60 % of Cmp 1a | 30 % of Cmp 1a and 19 % of Cmp 1a and 26 % of Cmp 1a | 9 % of Cmp 1a and 6.33 % of Cmp 1a and 5.33 % of Cmp 1a | 4.67 % of Cmp 1a and 0.667 % of Cmp 1a and -2.67 % of Cmp 1a | 3 % of Cmp 1a and -3.33 % of Cmp 1a and -3.67 % of Cmp 1a | 13 % of Cmp 1a and -4.67 % of Cmp 1a and 2.33 % of Cmp 1a | 7 % of Cmp 1a and -8 % of Cmp 1a and -1.33 % of Cmp 1a | 5.67 % of Cmp 1a and -2 % of Cmp 1a and -8 % of Cmp 1a | 8 % of Carbachol and -12 % of Carbachol and 7 % of Carbachol | fold decrease in potency relative to a similar phenyl substituted compound (1.3) (GPR139 [1]; Ca2+ mobilization EC50): 4- to 16 fold |
| 3160 nM | 82 ± 9% | Cc1ccc(-c2nc(CC(=O)NC(C)c3ccccc3)no2)cn1 (stereo not shown) [Compound 1.32, CC(C1=CC=CC=C1)NC(CC2=NOC(C3=CN=C(C)C=C3)=N2)=O] | 72 % of Cmp 1a and 83 % of Cmp 1a | 119 % of Cmp 1a and 81 % of Cmp 1a and 67 % of Cmp 1a | 69 % of Cmp 1a (2×) and 43 % of Cmp 1a | 37 % of Cmp 1a and 66 % of Cmp 1a and 27 % of Cmp 1a | 13 % of Cmp 1a and 24 % of Cmp 1a and -2 % of Cmp 1a | -0.322 % of Cmp 1a and 4.26 % of Cmp 1a and 0.586 % of Cmp 1a | -6.64 % of Cmp 1a and 3.41 % of Cmp 1a and 1.32 % of Cmp 1a | -5 % of Cmp 1a and 2.31 % of Cmp 1a and 1.1 % of Cmp 1a | 10 % of Cmp 1a and 3 % of Cmp 1a and 2.26 % of Cmp 1a | 1.63 % of Cmp 1a and 4.29 % of Cmp 1a and 1.12 % of Cmp 1a | -8 % of Cmp 1a and 9 % of Cmp 1a and -2.5 % of Cmp 1a | 66 % of Cmp 1a and 64 % of Cmp 1a and 48 % of Cmp 1a | -19 % of Carbachol and -6 % of Carbachol and 8 % of Carbachol | – |
| – | – | CC(NC(=O)C1CCN(c2cccc(Cl)c2)C1=O)c1ccsc1 (stereo not shown) [Compound 12, CC(NC(=O)C1CCN(C1=O)C=2C=CC=C(Cl)C2)C=3C=CSC3] | – | – | – | – | – | – | – | – | – | – | – | – | – | Ca2+ signal (% of Cmp 1a) (GPR139 [1]; 0.1 µM, individual replicates (Supplementary Figure 3)): -2.8 % of Cmp 1a and 0.3 % of Cmp 1a; Ca2+ signal (% of Cmp 1a) (GPR139 [1]; 1 µM, individual replicates (Supplementary Figure 3)): -0.458 % of Cmp 1a and 0.235 % of Cmp 1a; Ca2+ signal (% of Cmp 1a) (GPR139 [1]; 10 µM, individual replicates (Supplementary Figure 3)): 12.7 % of Cmp 1a and 12.3 % of Cmp 1a; Ca2+ signal (% of Cmp 1a) (GPR139 [1]; Agonist mode, individual replicates (Supplementary Figure 1)): 45 % of Cmp 1a and 20 % of Cmp 1a and 39 % of Cmp 1a; Ca2+ signal (% of Cmp 1a) (GPR139 [2]; individual replicates (Supplementary Figure 1)): 56.3731 % of Cmp 1a and 71.421 % of Cmp 1a and 56.1991 % of Cmp 1a; Ca2+ signal (% of Carbachol) ([3]; individual replicates (Supplementary Figure 2)): -6.54 % of Carbachol and -0.0404 % of Carbachol |

From PMC12775434, “Ultra-large virtual screening unveils potent agonists of the neuromodulatory orphan receptor GPR139” (Nature Communications, 2025)
